From US9814758B2, “Inhibitors of apoptosis and uses thereof” (CENTRE NATIONAL DE LA RECHERCHE SCIENTIFIQUE-CNRS, priority 2010, dated 2017)
No end group written: not given here.

Assays:
C2C12 cells = assay: STS-induced DNA fragmentation (Cell Death detection ELISA PLUS) in C2C12 cells; format: cell-based, mouse; settings: murine C2C12 (model for muscle cells); FIG. 5A
Protocol: FIG. 5: In vitro evaluation of the anti-apoptotic activity of CPPs and CPP-conjugates. Workflow and quantitation of DNA fragmentation in (A) C2C12 cells, (B) primary cardiomyocytes, (C) H9c2 cells and (D) NG108-15 cells. Data were normalized to 100% STS. Data shown are the means±SEM, with n≧5. Cells were seeded in 24-well plates and grown overnight. The next day, the cells were incubated with STS alone or with STS+1 μM peptide (in OPTI-MEM) (OPTI-MEM® is a modification of Eagle's Minimum Essential Media, buffered with HEPES and sodium bicarbonate, and supplemented with hypoxanthine, thymidine, sodium pyruvate, L-glutamine, trace elements, and growth factors) (STS concentration and incubation time for each cells are given in the figure). […] Following the regeneration phase, the cells were lyzed and DNA fragmentation was detected according to manufacturer's instructions (Cell Death detection ELISA^PLUS kit—Roche Diagnostics). […]
Thereafter, the capacity of these peptides to inhibit apoptosis induced by staurosporine was evaluated. Apoptosis was determined using the Cell Death detection ELISA^PLUS kit (Roche) measuring the DNA fragmentation.
The anti-apoptotic effects of the peptides were also analyzed in murine NG118-15 (model for neuronal cells) (FIG. 5D), in murine C2C12 (model for muscle cells) (FIG. 5A) and in rat H9c2 (model for cardiac cells) (FIG. 5C). […]

[1] = target: T1, His-tagged intracellular region of Fas receptor (Homo sapiens, UniProt P25445); assay: SPOT peptide array, enzyme-linked blot with His-tagged Fas; format: binding; settings: Fas 10 μg/ml; anti-His/anti-mouse-HRP
T1 construct: His-tagged intracellular region of Fas receptor [10 μg/ml]; purchased Sigma
T1 sequence (P25445 191-335 limits assumed): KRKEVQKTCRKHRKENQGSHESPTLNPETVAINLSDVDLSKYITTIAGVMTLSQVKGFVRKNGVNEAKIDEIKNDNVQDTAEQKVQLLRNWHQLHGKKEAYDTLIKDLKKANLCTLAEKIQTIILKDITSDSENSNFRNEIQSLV
Protocol: FIG. 1: Determination of the DAXX epitope by SPOT synthesis. (A) The amino acid sequence of DAXX was dissected in overlapping peptide arrays (pepscan; 15 mer peptides with a shift of 3 amino acids) and analyzed in enzyme-linked blot. […] Incubation conditions: His-tagged intracellular region of Fas receptor [10 μg/ml]; antibodies: anti-His-(mouse) (Sigma H1029; 1:6,000)/anti-mouse-HRP (Calbiochem 401207; 1:2,000), exposure time: 1 minute. (B) Alignment of the human DAXX sequence comprising the 16-mer KKSRKEKKQTGSGPLG (=DAXXp of SEQ ID NO: 5) with the DAXX sequences of other species (mouse, rat, dog (CANFA) and green monkey (CHLAE)).
FIG. 2: Determination of the optimal length of the DAXX epitope (=DAXXp) by SPOT synthesis. (A) The DAXXp-211 and DAXXp-209 peptides (of SEQ ID NO: 2 and SEQ ID NO: 3, respectively) were successively shortened by one amino acid residue at the N-terminus, at the C-terminus and both at the N- and the C-termini, and analyzed using enzyme-linked blot. […] Incubation conditions: His-tagged intracellular region of Fas receptor [10 μg/ml]; antibodies: anti-His-(mouse) (Sigma H1029; 1:6,000)/anti-mouse-HRP (Calbiochem 401207; 1:2,000), exposure time: 1 minute. (B) Alignment of both peptide sequences DAXXp-211 and DAXXp-209; corresponding to the brightest spots, to determine the optimal DAXX peptide sequence.
FIG. 8: Determination of FADDp15 and its anti-apoptotic effect in cardiomyocytes. (A) The protein sequences of FADD were dissected in overlapping peptide arrays (pepscan; 15 mer peptides with a shift of 3 amino acids) and analyzed using enzyme-linked blot. […] (B) The peptide sequence of FADDp-11 (=FADDp15=SEQ ID NO: 9) was successively shortened by one amino acid residue at the C-terminus, the N-terminus, or at both the C-terminus and the N-terminus, and analyzed using enzyme-linked blot. […] The shortest FADD epitope (a 9-mer with sequence KRKLERVQS (=FADDp=SEQ ID NO: 12)) corresponded to spot No. 24. Incubation conditions: His-tagged intracellular region of Fas receptor [10 μg/ml]; antibodies: anti-His-(mouse) (Sigma H1029; 1:6,000)/anti-mouse-HRP (Calbiochem 401207; 1:2,000), exposure time: 1 minute.
The peptides were synthesized on N-modified CAPE-membranes (Bhargava et al, Mol. Recognit, 2002, 15: 145) and prepared by a MultiPep SPOT-robot (INTAVIS Bioanalytical Instruments AG, Cologne, Germany). Array design was performed with the aid of the in-house software LISA 1.71. The synthesis started with spot definition using a standard protocol [Frank, Tetrahedron, 1992, 48: 9217), followed by the coupling of a solution of Fmoc-cysteine-(Trt)-Opfp (0.3M) in N-methylpyrolidone (NMP) and Fmoc-alanine-Opfp (double coupling, 15 min reaction each). After Fmoc cleavage with piperidine in DMF (20%), 4-hydroxymethylphenoxyacetic acid (HMPA) dissolved in dimethylformamide (DMF, 0.6M solution) and activated with EEDQ (1.1 equiv) was added, and samples were directly spotted on the membrane (4× coupling, 15 min reaction each). The membrane was acetylated with acetic anhydride in DMF (2%), washed with DMF (5×3 min), ethanol (2×3 min), and diethyl ether (2×3 min), and finally air dried. Solutions of Fmoc-amino acid-OH (0.4M) activated with 1,1′-carbonyldiimidazole (CDI, 3 equiv) in DMF were spotted on the membrane (4× coupling, 15 min reaction time each). Proline, tyrosine, and glutamine were activated with 1,1′-carbonyldi(1,2,4-triazole) (CDT). The Fmoc group was removed from the spots, and the peptide sequences were completed using the standard SPOT synthesis protocol (Frank, Tetrahedron, 1992, 48: 9217) followed by a N-terminal tag with β-alanine.
The primary sequence of the DAXX protein (SEQ ID NO: 1) was dissected in overlapping 15 mer peptides (3 amino acids shift) and all the peptides (243 peptides) were synthesized on cellulose membrane by SPOT synthesis as described above. The peptide library was incubated with the His-tagged intra-cellular region of the Fas receptor (Sigma). […]

Question: For “GRKKRRQRRRPPQKKSRKEKKQTGSGPLG-NH2 [Tat-DAXXp, GRKKRRQRRRPPQ-KKSRKEKKQTGSGPLG-NH2]”, which “reduction in DNA fragmentation” value (C2C12 cells) is on record?
Answer: The value was 24%.

Question: With “KKSRKEKKQTGSGPLG-NH2 [DAXXp, KKSRKEKKQTGSGPLG-NH2]” as the substance, how does the “interaction with the Fas receptor / signal intensity of the spot” value [1] read?
Answer: Its value is “interact with the Fas receptor”.
